{"source": "patent US20070155747A1", "about": "“INHIBITORS OF FATTY ACID AMIDE HYDROLASE” (KADMUS PHARMACEUTICALS, INC., priority 2005, published 2007)", "origin": "cited, not measured here", "test_system": "FAAH", "details": "literature (Kathuria et al. 2003; Mor et al. 2004; WO 2004/033422)"}
{"smiles": "NC(=O)c1cccc(-c2cccc(OC(=O)NC3CCCCC3)c2)c1", "note": "[KDS-4103]", "values": [{"measurement": "inhibition of FAAH activity", "value": "potent and selective inhibitors of FAAH activity"}]}
